Experimental data published in patent US12643906B2, “Fused aza-heterocyclic amide compound and use thereof” (CSPC ZHONGQI PHARMACEUTICAL TECHNOLOGY (SHIJIAZHUANG) CO., …, priority 2020, dated 2026).
Where two headings read alike, the source gives them in different places.

Key:
Ba/F3 LMNA-NTRK1-G667C = biological target: T1, Ba/F3 LMNA-NTRK1-G667C (Homo sapiens, UniProt P04629, G667C, cells depend on it); assay: In vitro cell proliferation inhibition (MTT); assay type: cell-based, murine; settings: 72 h, read-out: IC50 Ba/F3 LMNA-NTRK1-G667C
T1 construct: fused on or other part: P02545 (Prelamin-A/C)
Description: (§1) Cells in the logarithmic growth phase were harvested and counted using a […]. The cell suspension with a certain density was pipetted uniformly and seeded into a 96-well plate with each well of 100 μL, and shaken to make the cells uniformly disperse into the wells. 100 μL of compound solution with certain concentration gradient was added into each well, and 3 duplicate wells were set for each concentration. The plate was cultured in a CO2 incubator at 37° C. for 72 h. 20 μL of MTT working solution (5 mg/mL) was added into each well, and the plate was placed at 37° C. for 4 h, and centrifuged at 1000 rpm for 5 min by a plate centrifuge. After 180 μL of culture medium was discarded, the plate was added with 150 μL of DMSO, and mixed well with a microplate shaker, the plate bottom was wiped, and optical density (OD) at 550 nm was detected with a microplate reader.

Ba/F3 ETV6-NTRK2 = biological target: T2, Ba/F3 ETV6-NTRK2 (Homo sapiens, UniProt Q16620); assay: In vitro cell proliferation inhibition (MTT); assay type: cell-based, murine; settings: 72 h, read-out: IC50 Ba/F3 ETV6-NTRK2
T2 construct: fused on or other part: P41212 (Transcription factor ETV6)
Description: as §1

Ba/F3 ETV6-NTRK3-G623R = biological target: T3, Ba/F3 ETV6-NTRK3-G623R (Homo sapiens, UniProt Q16288, G623R, cells depend on it); assay: In vitro cell proliferation inhibition (MTT); assay type: cell-based, murine; settings: 72 h, read-out: IC50 Ba/F3 ETV6-NTRK3-G623R
T3 construct: fused on or other part: P41212 (Transcription factor ETV6)
Description: as §1

Ba/F3 LMNA-NTRK1 = biological target: T4, Ba/F3 LMNA-NTRK1 (Homo sapiens, UniProt P04629); assay: In vitro cell proliferation inhibition (MTT); assay type: cell-based, murine; settings: 72 h, read-out: IC50 Ba/F3 LMNA-NTRK1
T4 construct: fused on or other part: P02545 (Prelamin-A/C)
Description: as §1

Ba/F3 LMNA-NTRK1-G595R = biological target: T5, Ba/F3 LMNA-NTRK1-G595R (Homo sapiens, UniProt P04629, G595R, cells depend on it); assay: In vitro cell proliferation inhibition (MTT); assay type: cell-based, murine; settings: 72 h, read-out: IC50 Ba/F3 LMNA-NTRK1-G595R
T5 construct: fused on or other part: P02545 (Prelamin-A/C)
Description: as §1

Ba/F3 ETV6-NTRK3-G696A = biological target: T6, Ba/F3 ETV6-NTRK3-G696A (Homo sapiens, UniProt Q16288, G696A, cells depend on it); assay: In vitro cell proliferation inhibition (MTT); assay type: cell-based, murine; settings: 72 h, read-out: IC50 Ba/F3 ETV6-NTRK3-G696A
T6 construct: fused on or other part: P41212 (Transcription factor ETV6)
Description: • Source of 6 kinds of cell lines for the test: KYinno Biotechnology (Beijing) Co., Ltd. • Cell type: murine B cells • Culture medium: RPMI-1640+10% FB S 2. Test Method
as §1

TRKA = biological target: T7, TRKA (Homo sapiens, UniProt P04629); assay: HTRF kinase inhibition assay, TRKA; assay type: biochemical
T7 construct: purchased Bioduro
Description: (§2) The compound to be tested with a certain concentration gradient and an enzyme solution were successively added into a plate (kinase buffer (1× kinase buffer (Cisbio, Cat #62EZBFDD), pH 7.5; 5 mM MgCl2, 1 mM DTT) was added into negative control wells), and the compound plate was centrifuged at 1000 rpm for 30 seconds. The plate was sealed and incubated in a Constant Temperature Incubator at 25° C. for 30 min. A substrate solution containing TK-Sub-biotin (Cisbio, Cat #61TKOBL) and ATP (Sigma, Cat #R0441) was prepared, the substrate solution was added into a 384-well plate, and the plate was centrifuged at 1000 rpm for 30 seconds. The plate was sealed and incubated in a Constant Temperature Incubator at 25° C. for 60 min.
(§3) TK antibody and XL665 were diluted, mixed and added into the assay plate, and the plate was centrifuged at 1000 rpm for 30 seconds. The plate was sealed and incubated in a Constant Temperature incubator Incubator at 25° C. for 60 min. The assay plate was placed on an Envision reader for reading. (HTRF 665/615 ratio: signal value at 665 nm/signal value at 615 nm) Inhibition=(rationegative control well−ratiocompound well)/(rationegative control well−ratioenzyme-free control well)×100% 1.3 Data Analysis and Curve Fitting
(§4) Data were fitted in XLFit excel add-in version 5.4.0.8 to obtain IC50 values.

TRKB = biological target: T8, TRKB (Homo sapiens, UniProt Q16620); assay: HTRF kinase inhibition assay, TRKB; assay type: biochemical
T8 construct: purchased Bioduro
Description: as §2
(§5) TK antibody and XL665 were diluted, mixed and added into the assay plate, and the plate was centrifuged at 1000 rpm for 30 seconds. The plate was sealed and incubated in a Constant Temperature incubator Incubator at 25° C. for 60 min. The assay plate was placed on an Envision reader for reading.
as §4

TRKC = biological target: T9, TRKC (Homo sapiens, UniProt Q16288); assay: HTRF kinase inhibition assay, TRKC; assay type: biochemical
T9 construct: purchased Bioduro
Description: as §2, §3, §4

TRKA(G595R) = biological target: T10, TRKA(G595R) (Homo sapiens, UniProt P04629, G595R); assay: HTRF kinase inhibition assay, TRKA(G595R); assay type: biochemical
T10 construct: purchased signalchem
Description: as §2, §3, §4

TRKA(G667C) = biological target: T11, TRKA(G667C) (Homo sapiens, UniProt P04629, G667C); assay: HTRF kinase inhibition assay, TRKA(G667C); assay type: biochemical
T11 construct: purchased signalchem
Description: as §2, §3, §4

TRKC(G623R) = biological target: T12, TRKC(G623R) (Homo sapiens, UniProt Q16288, G623R); assay: HTRF kinase inhibition assay, TRKC(G623R); assay type: biochemical
T12 construct: purchased Bioduro
Description: as §2, §3, §4

TRKC(G696A) = biological target: T13, TRKC(G696A) (Homo sapiens, UniProt Q16288, G696A); assay: HTRF kinase inhibition assay, TRKC(G696A); assay type: biochemical
T13 construct: purchased Bioduro
Description: as §2, §5, §4

ALK = biological target: T14, ALK (Homo sapiens, UniProt Q9UM73); assay: Kinase inhibition assay with fluorescein labeled peptide, ALK; assay type: biochemical
T14 construct: purchased Carna 08-105
Description: (§6) Compounds were diluted to a certain concentration in DMSO with 4-fold gradients. The compound with a certain concentration, an enzyme solution and DMSO were added into a 384-well plate, and the plate was incubated at room temperature for 10 min. […] The plate was subjected to reading.

ROS1 = biological target: T15, ROS1 (Homo sapiens, UniProt P08922); assay: Kinase inhibition assay with fluorescein labeled peptide, ROS1; assay type: biochemical
T15 construct: purchased Carna 08-163
Description: as §6

[1] = test system: Ba/F3 LMNA-NTRK1-G595R model; settings: 100 mg/kg, gavage
Description: (§7) The cells in the logarithmic growth phase were collected and re-suspending in serum-free culture medium to make the cell concentration at […] cells/mL. The cell suspension was added with equal volume of Matrigel to make the final cell concentration at 3×10^7-5×10^7 cells/mL. The animal model was established by subcutaneously inoculating 0.1 mL of tumor cell suspension in the axilla of the forelimb of NuNu mice (female, 4-6 weeks, Beijing Vital River Laboratory Animal Technology Co., Ltd.) in an amount of 3×10^6-5×10^6 cells/mouse.
(§8) The maximum and the minimum tumor diameters of the xenografts in nude mice were measured using a vernier caliper, and the tumor volume (TV) was calculated according to the formula: V=½×a×b^2, where a and b represent the maximum and minimum diameters of the tumor mass, respectively. Nude mice with appropriate tumor volume were selected and the mice were evenly divided into 7 groups of 6 mice (100-200 mm^3) by tumor volume using a random number method.
(§9) Tumor diameters were measured twice weekly and tumor volume was calculated. […] (where Ti represents the mean tumor volume of a certain administration group on a certain day; TO represents the mean tumor volume of the administration group at the start of administration, Vi represents the mean tumor volume of the vehicle control group on a certain day (same day as Ti) and V0 represents the mean tumor volume of the vehicle control group at the start of administration); • Tumor inhibition rate: at the end of the test, the animals were executed by removing the cervical vertebrae.

[2] = test system: Ba/F3 LMNA-NTRK1-G667C model; settings: gavage
Description: as §7, §8, §9

Compound: CC(C)(O)C(=O)N1CCC(c2ccc(NC(=O)c3cnn4ccc(N5C[C@@H](F)C[C@@H]5c5cc(F)ccc5F)nc34)cc2)CC1 [Compound 13]
- GI50 (Ba/F3 LMNA-NTRK1-G667C): 1.47 nM

Compound: CN1CCN(Cc2ccc(C(=O)Nc3cnn4ccc(N5CCC[C@@H]5c5cc(F)ccc5F)nc34)cc2)CC1 [Compound D3]
- GI50 (Ba/F3 ETV6-NTRK2): 17.4 nM
- GI50 (Ba/F3 ETV6-NTRK3-G623R): 207 nM
- GI50 (Ba/F3 LMNA-NTRK1): 8.68 nM
- GI50 (Ba/F3 LMNA-NTRK1-G595R): 522 nM
- GI50 (Ba/F3 LMNA-NTRK1-G667C): 316 nM
- GI50 (Ba/F3 ETV6-NTRK3-G696A): 542 nM

Compound: O=C(Nc1ccc(NC2COC2)cc1)c1cnn2ccc(N3C[C@@H](F)C[C@@H]3c3cc(F)ccc3F)nc12 [Compound 19, 5-((2R,4S)-2-(2,5-difluorophenyl)-4-fluoropyrrolidin-1-yl)-N-(4-(oxetan-3-ylamino)phenyl)pyrazolo[1,5-a]pyrimidine-3-carboxamide]
- IC50 (TRKA): 0.265 nM
- IC50 (TRKB): 0.984 nM
- IC50 (TRKC): 0.724 nM
- IC50 (TRKA(G595R)): < 0.169 nM
- IC50 (TRKA(G667C)): 0.308 nM
- IC50 (TRKC(G623R)): 0.241 nM
- IC50 (TRKC(G696A)): 0.936 nM
- IC50 (ALK): 39 nM
- IC50 (ROS1): 0.23 nM
- GI50 (Ba/F3 ETV6-NTRK2): 0.866 nM
- GI50 (Ba/F3 ETV6-NTRK3-G623R): 0.426 nM
- GI50 (Ba/F3 LMNA-NTRK1): 0.416 nM
- GI50 (Ba/F3 LMNA-NTRK1-G595R): 0.208 nM
- GI50 (Ba/F3 LMNA-NTRK1-G667C): 1.19 nM
- GI50 (Ba/F3 ETV6-NTRK3-G696A): 0.321 nM

Compound: O=C(Nc1ccc(N2CCn3c(nnc3C(F)(F)F)C2)cc1)c1cnn2ccc(N3C[C@@H](F)C[C@@H]3c3cc(F)ccc3F)nc12 [Compound 23]
- GI50 (Ba/F3 ETV6-NTRK3-G623R): 0.852 nM
- GI50 (Ba/F3 LMNA-NTRK1-G595R): 0.525 nM
- GI50 (Ba/F3 LMNA-NTRK1-G667C): 4.93 nM
- GI50 (Ba/F3 ETV6-NTRK3-G696A): 0.435 nM

Compound: COc1cc(N2CCN(C)CC2)ccc1C(=O)Nc1cnn2ccc(N3CCC[C@@H]3c3cc(F)ccc3F)nc12 [Compound D2]
- GI50 (Ba/F3 ETV6-NTRK2): 13.4 nM
- GI50 (Ba/F3 ETV6-NTRK3-G623R): 46.5 nM
- GI50 (Ba/F3 LMNA-NTRK1): 1.03 nM
- GI50 (Ba/F3 LMNA-NTRK1-G595R): 230 nM
- GI50 (Ba/F3 LMNA-NTRK1-G667C): 42.7 nM
- GI50 (Ba/F3 ETV6-NTRK3-G696A): 202 nM

Compound: C[C@@H]1CCc2ncc(F)cc2[C@H]2CCCN2c2ccn3ncc(c3n2)C(=O)N1 [LOXO-195, reference compound]
- IC50 (ALK): 391 nM
- GI50 (Ba/F3 ETV6-NTRK2): 2.89 nM
- GI50 (Ba/F3 ETV6-NTRK3-G623R): 4.54 nM
- GI50 (Ba/F3 LMNA-NTRK1): 9.08 nM
- GI50 (Ba/F3 LMNA-NTRK1-G667C): 112 nM
- GI50 (Ba/F3 ETV6-NTRK3-G696A): 4.5 nM
- Number of animals (Survival/total) [1]: (6/6)
- Rate of weight gain (%) [1]: 8.59%
- TGI (%) [1]: 124.6%
- Tumor volume (mm^3) [1]: 66.3 ± 37.1 mm^3
- Tumor weight [1]: 0.12 ± 0.06 g
- Tumor weight inhibition rate (%) [1]: 76.58%
- Number of animals (Survival/total) ([2]; 100 mg/kg): (6/6)
- Rate of weight gain (%) ([2]; 100 mg/kg): 2.38%
- TGI (%) ([2]; 100 mg/kg): 36.4%
- Tumor volume (mm^3) ([2]; 100 mg/kg): 381.2 ± 134.4 mm^3
- Tumor weight ([2]; 100 mg/kg): 0.43 ± 0.18 g
- Tumor weight inhibition rate (%) ([2]; 100 mg/kg): 21.57%
- Number of animals (Survival/total) ([2]; 200 mg/kg): (5/6)
- Rate of weight gain (%) ([2]; 200 mg/kg): 7.88%
- TGI (%) ([2]; 200 mg/kg): 95.4%
- Tumor volume (mm^3) ([2]; 200 mg/kg): 154.5 ± 92.2 mm^3
- Tumor weight ([2]; 200 mg/kg): 0.22 ± 0.16 g
- Tumor weight inhibition rate (%) ([2]; 200 mg/kg): 59.96%

Compound: O=C(NC1CCN(C(=O)CO)CC1)c1cnn2ccc(N3C[C@@H](F)C[C@@H]3c3cccc(F)c3)nc12 [Compound D4]
- GI50 (Ba/F3 ETV6-NTRK2): 14.9 nM
- GI50 (Ba/F3 ETV6-NTRK3-G623R): 17 nM
- GI50 (Ba/F3 LMNA-NTRK1): 9.52 nM
- GI50 (Ba/F3 LMNA-NTRK1-G595R): 65.9 nM
- GI50 (Ba/F3 LMNA-NTRK1-G667C): ≥ 1000 nM
- GI50 (Ba/F3 ETV6-NTRK3-G696A): 141 nM
